# Test results: patent EP0568635B1, “IMPROVED GLYPHOSATE FORMULATIONS” (MONSANTO COMPANY, priority 1991, dated 1992)
# Test system: Johnsongrass
# Test: Greenhouse bioassay test of herbicidal activity, pot-grown weeds sprayed with a track sprayer
# Format: in vivo
# Conditions: mean of four rates (1/4, 1/2, 3/4 and 1 pound glyphosate/acre; 0.28, 0.56, 0.84 and 1.12 kg/ha), 4 weeks after treatment, 0.25 % ethoxylated amine surfactant in all spray solutions
# Description: The results of the bioassay test of the Example 2 formulation are shown below. Roundup herbicide was used as a comparative of the prior art.
# In all of the greenhouse bioassay tests provided in this specification, pot-grown weed species were sprayed with aqueous solutions of the glyphosate WSP formulations using a track sprayer calibrated to apply about 20 gallons/acre (187 liters/hectare) at about 30 psi ([…]).
# WSP formulations were prepared without Witconate surfactant. The surfactant was tank mixed into the spray solutions for bioassays.
smiles,measurement,value
CC(C)N.O=C(O)CNCP(=O)(O)O [Isopropylamine salt of glyphosate],% INHIBITION,55.2%
